One test deals with T1, IDH1WT enzyme (Homo sapiens, UniProt O75874).
T1 construct: purchased not specified
Description: Enzymatic assay for IDH1 wild-type (NADPH forming assay). It counts as biochemical. Put shortly: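 Compounds (10-point 1:3 series from 1 mM in DMSO stock) preincubated 15 min at RT with 0.016 nM enzyme in Tris-HCl pH 7.6, NaCl, MgCl2, Triton X-100, β-mercaptoethanol. Started with 400 μM NADP+, 40 μM isocitrate, diaphorase, 7 μM resazurin (Substrate Mix concentrations); resorufin fluorescence Ex544/Em590 read continuously.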

Another test has as its system HT-1080 (IDH1^R132C). Description: Cellular 2-HG production assay, HT-1080. It counts as cell-based. Conditions: Homo sapiens, HT-1080, 72 h, inhibition of 2HG production, 72 hr incubation, LC-MS/MS; read-out: HT1080 2-HG IC50. A digest of the protocol: (§1)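 Cells in E-MEM/10% FCS (G418 500 μg/mL for the transfected U87-MG line) at 500 per well got compound 24 h after seeding and were incubated 72 h at 37 °C. Medium 2-HG was measured by LC-MS/MS with 2-HG-d3 internal standard; IC50 came from sigmoidal fitting versus controls.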

The target in the next test is T2, IDH1^R132C (Homo sapiens, UniProt O75874, R132C).
T2 construct: purchased not specified
Description: NADPH depletion assay, IDH1 R132C. It counts as biochemical. A digest of the protocol:
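Fluorescence readout (Ex544/Em590) of NADPH left after diaphorase/resazurin addition. Alpha-ketoglutarate 0.14 mM final, enzyme 2 nM final; compound preincubation 15 min, then 60 min reaction, both at room temperature, pH 7.6 Tris buffer.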

A further test addresses T3, IDH2^R172K (Homo sapiens, UniProt P48735, R172K).
T3 construct: purchased not specified
T3 sequence (P48735 40-452 R172K): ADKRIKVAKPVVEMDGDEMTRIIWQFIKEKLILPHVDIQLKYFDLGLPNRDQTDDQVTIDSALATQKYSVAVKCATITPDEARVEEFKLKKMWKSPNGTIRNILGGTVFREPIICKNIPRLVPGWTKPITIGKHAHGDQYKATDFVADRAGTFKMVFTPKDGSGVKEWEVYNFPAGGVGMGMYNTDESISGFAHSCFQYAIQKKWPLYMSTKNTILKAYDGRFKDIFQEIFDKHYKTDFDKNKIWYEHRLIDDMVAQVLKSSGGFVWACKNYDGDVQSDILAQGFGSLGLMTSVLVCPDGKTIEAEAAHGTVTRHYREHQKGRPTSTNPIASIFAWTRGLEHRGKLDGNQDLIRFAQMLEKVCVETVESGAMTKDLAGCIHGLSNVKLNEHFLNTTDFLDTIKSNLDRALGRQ
In words: NADPH depletion assay, IDH2 R172K. In kind it is biochemical. Put shortly:
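This NADPH depletion assay measures NADPH left after conversion of alpha-ketoglutarate (0.55 mM final) by 16 nM IDH2 R172K over 60 min at room temperature, after a 15 min compound preincubation in pH 7.6 Tris buffer. Substrate mix held 12 μM NADPH. Diaphorase/resazurin gave the fluorescence read-out at 544/590 nm.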

The subject of another test is U87MG_IDH1R132H. In words: Cellular 2-HG production assay, U87-MG-IDH1 R132H. It counts as cell-based. Conditions: inhibition of 2HG production, 72 hr incubation, LC-MS/MS. Put shortly: as §1
The target of test [1] is T4, IDH1^R132H homodimer enzyme (Homo sapiens, UniProt O75874, R132H).
T4 construct: purchased not specified
Description: NADPH depletion assay, IDH1 R132H. In kind it is biochemical. A digest of the protocol: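 IDH1 R132H enzyme (8 nM as diluted) in Tris-HCl pH 7.6 with 10 mM MgCl2, 0.001% Triton X-100 and 4 mM β-mercaptoethanol is preincubated 15 min at RT with compound. Substrate mix (12 uM NADPH, 3.4 mM α-ketoglutarate) is added for 60 min; remaining NAD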

The structures appear in SMILES notation.

T2 sequence (O75874 whole entry R132C): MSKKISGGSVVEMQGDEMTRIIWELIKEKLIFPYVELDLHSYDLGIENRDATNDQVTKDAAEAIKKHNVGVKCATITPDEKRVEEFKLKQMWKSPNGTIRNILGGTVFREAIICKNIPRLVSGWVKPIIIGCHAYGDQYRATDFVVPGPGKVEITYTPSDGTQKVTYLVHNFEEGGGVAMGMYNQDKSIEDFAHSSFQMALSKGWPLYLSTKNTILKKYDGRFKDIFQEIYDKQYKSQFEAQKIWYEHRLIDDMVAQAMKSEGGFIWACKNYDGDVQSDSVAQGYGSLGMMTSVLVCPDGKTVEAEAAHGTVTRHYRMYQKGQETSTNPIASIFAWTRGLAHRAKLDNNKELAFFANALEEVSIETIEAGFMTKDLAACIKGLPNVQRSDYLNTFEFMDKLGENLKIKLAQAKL
T1 sequence (O75874 whole entry): as the sequence (O75874 whole entry R132C) above, with C132R counted along it
T4 sequence (O75874 whole entry R132H): as the sequence (O75874 whole entry R132C) above, with C132H counted along it

One may read the IC50 as the concentration needed to halve the response being measured. On to `C=CC(=O)N1CCN([C@@H](CC2CC2)c2ccc([C@H](C)Nc3ncc4ccc(=O)n(C(C)C)c4n3)cc2)CC1` [cpd 230, 2-{[(1S)-1-{4-[(1S)-1-(4-acryloylpiperazin-1-yl)-2-cyclopropylethyl]phenyl}ethyl]amino}-8-(propan-2-yl) pyrido [2,3-d]pyrimidin-7(8H)-one], for which the IC50 at IDH1WT enzyme was determined as 39 nM; in the test with HT-1080 (IDH1^R132C) it was 0.4 nM; on IDH1^R132C, 1 nM; against IDH2^R172K, 11 nM; in the test on U87MG_IDH1R132H, 0.4 nM; in test [1], 1 nM.

Regarding `C[C@H](Nc1ncc2ccc(=O)n(CC(C)(C)C)c2n1)c1ccc(CN2CCC(F)(F)CC2)cc1` [cpd 105, 2-{[(1S)-1-{4-[(4,4-difluoropiperidin-1-yl)methyl]phenyl)ethyl]amino)-8-(2,2-dimethylpropyl)pyrido[2,3-d]pyrimidin-7(8H)-one], the IC50 against IDH1WT enzyme was determined as 2040 nM; with HT-1080 (IDH1^R132C) it was 116 nM; on IDH1^R132C, 55 nM; against IDH2^R172K it was 4730 nM; with U87MG_IDH1R132H, 417 nM; in test [1], 105 nM.

Turning to `C=CC(=O)N1CCN([C@@H](CC)c2ccc([C@H](C)Nc3ncc4ccc(=O)n(C(C)C)c4n3)cc2)CC1` [cpd 227, 2-{[(1S)-1-{4-[(1S)-1-(4-acryloylpiperazin-1-yl)propyl]phenyl}ethyl]amino}-8-(propan-2-yl)pyrido[2,3-d]pyrimidin-7(8H)-one], the IC50 turned out to be 109 nM at IDH1WT enzyme; 1.4 nM in the test with HT-1080 (IDH1^R132C); 5 nM against IDH1^R132C; 49 nM on IDH2^R172K; 0.4 nM in the test with U87MG_IDH1R132H; 7 nM in test [1].

Take `C=CC(=O)N1CCN(Cc2ccc([C@H](C)Nc3ncc4ccc(=O)n(CC(C)(C)C)c4n3)cc2)CC1` [cpd 139, 2-{(S)-1-[4-(4-Acryloyl-piperazin-1-ylmethyl)-phenyl]-ethylamino}-8-(2,2-dimethyl-propyl)-8H-pyrido[2,3-d]pyrimidin-7-one]: the half-maximal inhibitory concentration (IC50) against IDH1WT enzyme turned out to be 720 nM; in the test on HT-1080 (IDH1^R132C), 22 nM; against IDH1^R132C it was 21 nM; at IDH2^R172K, 264 nM; in the test with U87MG_IDH1R132H, 8 nM; in test [1], 42 nM.

Turning to `C=CC(=O)N1CCN([C@H](CC)c2ccc([C@H](C)Nc3ncc4ccc(=O)n(C(C)C)c4n3)cc2)CC1` [cpd 228, 2-{[(1S)-1-{4-[(1R)-1-(4-acryloylpiperazin-1-yl)propyl]phenyl}ethyl]amino}-8-(propan-2-yl)pyrido[2,3-d]pyrimidin-7(8H)-one], the IC50 at IDH1WT enzyme is 27.3 nM; with HT-1080 (IDH1^R132C) it was 0.8 nM; at IDH1^R132C it was 2 nM; on IDH2^R172K, 25 nM; in the test on U87MG_IDH1R132H, 0.6 nM; in test [1], 2 nM.

For the origin of these results see patent US12018023B2 (NERVIANO MEDICAL SCIENCES S.R.L., priority 2018, dated 2024).
